# Measurements taken from PubChem BioAssay (NCI).
#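 Five compound concentrations were applied to cells in 96-well plates for 48 hours; endpoints were derived by simple linear interpolation of the resulting dose-response curve. At the GI50, growth is halved. Definition used: TGI = concentration required for complete inhibition of growth.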
# Assays:
# Experiment in all cases: inhibition of tumour cell growth, NCI panel, 48 h
# [1] = tested on: MCF7 breast
# [2] = tested on: HL-60(TB) leukemia
# [3] = tested on: HT29 colon
# [4] = tested on: SR leukemia
# [5] = tested on: SNB-19 CNS
# [6] = tested on: U251 CNS
# [7] = tested on: UO-31 renal
# [8] = tested on: CAKI-1 renal
# [9] = tested on: LOX IMVI melanoma
# [10] = tested on: OVCAR-8 ovarian
# [11] = tested on: MOLT-4 leukemia
# [12] = tested on: SK-MEL-28 melanoma
# [13] = tested on: M14 melanoma
# [14] = tested on: A549 NSCLC
# [15] = tested on: SN12C renal
# [16] = tested on: SK-MEL-2 melanoma
# [17] = tested on: NCI-H460 lung
# [18] = tested on: ACHN renal
# [19] = tested on: KM12 colon
# [20] = tested on: UACC-62 melanoma
# [21] = tested on: HCT-116 colon
# [22] = tested on: SF-539 CNS
# [23] = tested on: OVCAR-4 ovarian
# [24] = tested on: HOP-62 NSCLC
# [25] = tested on: DU-145 prostate
# [26] = tested on: SF-295 CNS
# [27] = tested on: HOP-92 NSCLC
# [28] = tested on: OVCAR-5 ovarian
smiles,measurement,setting,value
CC(=O)Oc1ccccc1C(=O)Nc1ccc(C(=O)/C=C/c2ccncc2)cc1,GI50,[1],6.13 µM
same,TGI,[1],> 100 µM
same,GI50,[2],34.8 µM
same,TGI,[2],> 100 µM
same,GI50,[3],30.5 µM
same,TGI,[3],> 100 µM
same,GI50,[4],22.4 µM
same,TGI,[4],89.5 µM
same,GI50,[5],> 100 µM
same,TGI,[5],> 100 µM
same,GI50,[6],35.6 µM
same,TGI,[6],> 100 µM
same,GI50,[7],63.2 µM
same,TGI,[7],> 100 µM
same,GI50,[8],42.8 µM
same,TGI,[8],> 100 µM
same,GI50,[9],12.8 µM
same,TGI,[9],34.8 µM
same,GI50,[10],> 100 µM
same,TGI,[10],> 100 µM
same,GI50,[11],40.2 µM
same,TGI,[11],> 100 µM
same,GI50,[12],> 100 µM
same,TGI,[12],> 100 µM
same,GI50,[13],40.8 µM
same,TGI,[13],> 100 µM
same,GI50,[14],> 100 µM
same,TGI,[14],> 100 µM
same,GI50,[15],55.3 µM
same,TGI,[15],> 100 µM
same,GI50,[16],> 100 µM
same,TGI,[16],> 100 µM
same,GI50,[17],36.6 µM
same,TGI,[17],> 100 µM
same,GI50,[18],59.7 µM
same,TGI,[18],> 100 µM
same,GI50,[19],25.9 µM
same,TGI,[19],> 100 µM
same,GI50,[20],> 100 µM
same,TGI,[20],> 100 µM
same,GI50,[21],13.3 µM
same,TGI,[21],28.2 µM
same,GI50,[22],30.5 µM
same,TGI,[22],> 100 µM
same,GI50,[23],85.8 µM
same,TGI,[23],> 100 µM
same,GI50,[24],> 100 µM
same,TGI,[24],> 100 µM
same,GI50,[25],58.2 µM
same,TGI,[25],> 100 µM
same,GI50,[26],> 100 µM
same,TGI,[26],> 100 µM
same,GI50,[27],4.6 µM
same,TGI,[27],> 100 µM
same,GI50,[28],> 100 µM
same,TGI,[28],> 100 µM
